Measured values from PubChem BioAssay (NCI).
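Values below derive from 48-hour exposures of cells grown in 96-well plates, with endpoints linearly interpolated between the two concentrations bracketing the appropriate inhibition level. GI50 = concentration required for 50% inhibition of growth. The concentration for full growth arrest is given as TGI.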

Key:
Assay in all cases: inhibition of tumour cell growth, NCI panel, 48 h
SK-OV-3 ovarian = tested on: SK-OV-3 ovarian
OVCAR-4 ovarian = tested on: OVCAR-4 ovarian
HT29 colon = tested on: HT29 colon
SK-MEL-2 melanoma = tested on: SK-MEL-2 melanoma
PC-3 prostate = tested on: PC-3 prostate
RXF 393 renal = tested on: RXF 393 renal
KM12 colon = tested on: KM12 colon
UO-31 renal = tested on: UO-31 renal
IGROV1 ovarian = tested on: IGROV1 ovarian
SK-MEL-5 melanoma = tested on: SK-MEL-5 melanoma
SN12C renal = tested on: SN12C renal
MDA-MB-435 = tested on: MDA-MB-435
K-562 leukemia = tested on: K-562 leukemia
UACC-257 melanoma = tested on: UACC-257 melanoma
COLO 205 colon = tested on: COLO 205 colon
SK-MEL-28 melanoma = tested on: SK-MEL-28 melanoma
SW-620 colon = tested on: SW-620 colon
NCI/ADR-RES ovarian = tested on: NCI/ADR-RES ovarian
MOLT-4 leukemia = tested on: MOLT-4 leukemia
786-0 renal = tested on: 786-0 renal
OVCAR-3 ovarian = tested on: OVCAR-3 ovarian
LOX IMVI melanoma = tested on: LOX IMVI melanoma
DU-145 prostate = tested on: DU-145 prostate
CAKI-1 renal = tested on: CAKI-1 renal
SNB-75 CNS = tested on: SNB-75 CNS
CCRF-CEM leukemia = tested on: CCRF-CEM leukemia
OVCAR-8 ovarian = tested on: OVCAR-8 ovarian
HCT-15 colon = tested on: HCT-15 colon
SF-268 CNS = tested on: SF-268 CNS
NCI-H23 lung = tested on: NCI-H23 lung
HCT-116 colon = tested on: HCT-116 colon
NCI-H460 lung = tested on: NCI-H460 lung
NCI-H226 lung = tested on: NCI-H226 lung
A498 renal = tested on: A498 renal
SR leukemia = tested on: SR leukemia
HS 578T breast = tested on: HS 578T breast
TK-10 renal = tested on: TK-10 renal
MCF7 breast = tested on: MCF7 breast
OVCAR-5 ovarian = tested on: OVCAR-5 ovarian
BT-549 breast = tested on: BT-549 breast
HCC-2998 colon = tested on: HCC-2998 colon
SF-295 CNS = tested on: SF-295 CNS
NCI-H522 lung = tested on: NCI-H522 lung
SNB-19 CNS = tested on: SNB-19 CNS
HOP-62 NSCLC = tested on: HOP-62 NSCLC
EKVX NSCLC = tested on: EKVX NSCLC
HL-60(TB) leukemia = tested on: HL-60(TB) leukemia
T-47D breast = tested on: T-47D breast
ACHN renal = tested on: ACHN renal
RPMI-8226 leukemia = tested on: RPMI-8226 leukemia
HOP-92 NSCLC = tested on: HOP-92 NSCLC
A549 NSCLC = tested on: A549 NSCLC
U251 CNS = tested on: U251 CNS

Oc1ccc(/C=N\Nc2ccccn2)c(O)c1
GI50 (SK-OV-3 ovarian): 3.24 µM | TGI (SK-OV-3 ovarian): > 100 µM | GI50 (OVCAR-4 ovarian): 2870 nM | TGI (OVCAR-4 ovarian): > 100 µM | GI50 (HT29 colon): 4.8 µM | TGI (HT29 colon): > 100 µM | GI50 (SK-MEL-2 melanoma): 9.43 µM | TGI (SK-MEL-2 melanoma): > 100 µM | GI50 (PC-3 prostate): 4.56 µM | TGI (PC-3 prostate): > 100 µM | GI50 (RXF 393 renal): 2240 nM | TGI (RXF 393 renal): 53.4 µM | GI50 (KM12 colon): 1510 nM | TGI (KM12 colon): 20.4 µM | GI50 (UO-31 renal): 241 nM | TGI (UO-31 renal): 719 nM | GI50 (IGROV1 ovarian): 638 nM | TGI (IGROV1 ovarian): 3.64 µM | GI50 (SK-MEL-5 melanoma): 2170 nM | TGI (SK-MEL-5 melanoma): > 100 µM | GI50 (SN12C renal): 2480 nM | TGI (SN12C renal): > 100 µM | GI50 (MDA-MB-435): 1370 nM | TGI (MDA-MB-435): > 100 µM | GI50 (K-562 leukemia): 482 nM | TGI (K-562 leukemia): > 100 µM | GI50 (UACC-257 melanoma): 2730 nM | TGI (UACC-257 melanoma): 16.7 µM | GI50 (COLO 205 colon): 5.83 µM | TGI (COLO 205 colon): > 100 µM | GI50 (SK-MEL-28 melanoma): 16 µM | TGI (SK-MEL-28 melanoma): > 100 µM | GI50 (SW-620 colon): 1520 nM | TGI (SW-620 colon): > 100 µM | GI50 (NCI/ADR-RES ovarian): 364 nM | TGI (NCI/ADR-RES ovarian): > 100 µM | GI50 (MOLT-4 leukemia): 382 nM | TGI (MOLT-4 leukemia): 10.6 µM | GI50 (786-0 renal): 1530 nM | TGI (786-0 renal): > 100 µM | GI50 (OVCAR-3 ovarian): 1770 nM | TGI (OVCAR-3 ovarian): > 100 µM | GI50 (LOX IMVI melanoma): 1960 nM | TGI (LOX IMVI melanoma): > 100 µM | GI50 (DU-145 prostate): 422 nM | TGI (DU-145 prostate): 4.32 µM | GI50 (CAKI-1 renal): 252 nM | TGI (CAKI-1 renal): 687 nM | GI50 (SNB-75 CNS): 1460 nM | TGI (SNB-75 CNS): 6.62 µM | GI50 (CCRF-CEM leukemia): 1010 nM | TGI (CCRF-CEM leukemia): 8.71 µM | GI50 (OVCAR-8 ovarian): 645 nM | TGI (OVCAR-8 ovarian): > 100 µM | GI50 (HCT-15 colon): 533 nM | TGI (HCT-15 colon): > 100 µM | GI50 (SF-268 CNS): 494 nM | TGI (SF-268 CNS): 6 µM | GI50 (NCI-H23 lung): 783 nM | TGI (NCI-H23 lung): > 100 µM | GI50 (HCT-116 colon): 1700 nM | TGI (HCT-116 colon): > 100 µM | GI50 (NCI-H460 lung): 443 nM | TGI (NCI-H460 lung): 3.99 µM | GI50 (NCI-H226 lung): 2250 nM | TGI (NCI-H226 lung): 7.03 µM | GI50 (A498 renal): 1870 nM | TGI (A498 renal): 7.17 µM | GI50 (SR leukemia): 311 nM | TGI (SR leukemia): 11.7 µM | GI50 (HS 578T breast): 4.99 µM | TGI (HS 578T breast): > 100 µM | GI50 (TK-10 renal): 8.41 µM | TGI (TK-10 renal): > 100 µM | GI50 (MCF7 breast): 1760 nM | TGI (MCF7 breast): 11 µM | GI50 (OVCAR-5 ovarian): 5.48 µM | TGI (OVCAR-5 ovarian): > 100 µM | GI50 (BT-549 breast): 4.87 µM | TGI (BT-549 breast): > 100 µM | GI50 (HCC-2998 colon): 3 µM | TGI (HCC-2998 colon): > 100 µM | GI50 (SF-295 CNS): 318 nM | TGI (SF-295 CNS): 767 nM | GI50 (NCI-H522 lung): 1290 nM | TGI (NCI-H522 lung): > 100 µM | GI50 (SNB-19 CNS): 2970 nM | TGI (SNB-19 CNS): > 100 µM | GI50 (HOP-62 NSCLC): 2140 nM | TGI (HOP-62 NSCLC): 9.55 µM | GI50 (EKVX NSCLC): 1400 nM | TGI (EKVX NSCLC): 7.46 µM | GI50 (HL-60(TB) leukemia): 243 nM | TGI (HL-60(TB) leukemia): 783 nM | GI50 (T-47D breast): 2410 nM | TGI (T-47D breast): > 100 µM | GI50 (ACHN renal): 338 nM | TGI (ACHN renal): 2820 nM | GI50 (RPMI-8226 leukemia): 1450 nM | TGI (RPMI-8226 leukemia): > 100 µM | GI50 (HOP-92 NSCLC): 5.02 µM | TGI (HOP-92 NSCLC): > 100 µM | GI50 (A549 NSCLC): 2510 nM | TGI (A549 NSCLC): > 100 µM | GI50 (U251 CNS): 773 nM | TGI (U251 CNS): > 100 µM
